Measurements: US20050026897A1, “Trinuclear copper-based compound and ligand for nucleic acid scission and anticancer treatment” (priority 2001, published 2005)

Columns and labels:
OD1+OD2 duplex DNA = assay: Strand scission of duplex-forming OD1+OD2 with MPA, PAGE; type: biochemical
Description: (§1) FIG. 3 is an autoradiogram of a 20% polyacrylamide denaturing gel (7 M urea) showing cleavage products of 100 nM 5′-^32P-labeled OD1 incubated with a compound of formula I and MPA (3-mercaptopropionic acid) for 15 minutes in sodium phosphate (10 mM, pH 7.5) at ambient temperature. Lane 1 depicts OD1 alone. Lane 2 depicts OD1 with 5 μM formula I. Lane 3 depicts OD1 with 5 mM MPA. Lane 4-6 depict 0.5, 1, and 5 μM formula I with 5 mM MPA and OD1. Lane 7 depicts OD1+OD2 with 10 μM formula 1 and 5 mM MPA. Lane 8 depicts A+G sequencing lane.
(§2) A hairpin forming oligonucleotide (OD1) (SEQ ID NO. 2) (see FIG. 1) was treated with a compound of formula I in the presence of excess MPA and it was then quenched with dithiocarbamic acid. […] Selectivity was reduced to 66% if the concentration of the compound of formula I is increased 10-fold to 5 μm, due in part to an increase in reactivity primarily at A9, T10 and T21 (FIG. 3, lane 6). In the absence of either the thiol or the compound of formula I, no cleavage of OD1 was observed (FIG. 3, lanes 2 and 3). In addition, there was no enhancement of reaction at A9, T10 or T21. […] The persistent specificity for A22 when OD2 is present was likely due to residual hairpin formed in competition with duplex DNA.

[1] = tested on: hairpin forming oligonucleotide (OD1); assay: Strand scission of 5'-32P-labeled hairpin oligonucleotide OD1 with MPA, PAGE / phosphorimage analysis; type: biochemical
Description: as §1
as §2, with “DNA. […]” for “DNA.”

[Cu+2].c1cnc2c(c1)ccc1cccnc12.c1cnc2c(c1)ccc1cccnc12 [Cu(OP)2^2+, bis(1,10-phenanthroline)copper]
A22 as target of reaction (OD1+OD2 duplex DNA): not a major target | A22 as target of reaction [1]: not a major target
